Measurements as given in US8492394B2, “(3-aryl-piperazin-1-yl), (2-aryl-morpholin-4-yl) and (2-aryl-thiomorpholin-4-yl) derivatives of 6,7-dialkoxy-quinazoline, 6,7-dialkoxyphtalazine and 6,7-dialkoxyisoquinoline as PDE10A enzyme inhibitors” (H. Lundbeck A/S, priority 2006, dated 2013).

What was measured:
PDE10A enzyme = PDE10A enzyme (Homo sapiens (Human), UniProt Q9Y233); experiment: PDE10A inhibition assay; format: biochemical; conditions: tritium labeled cAMP 5 nM, SPA; read-out: PDE10 IC50
Experimental: Active PDE10A enzyme is prepared in a number of ways for use in PDE assays (Loughney, K. et al. Gene 1999, 234, 109-117; Fujishige, K. et al. Eur J. Biochem. 1999, 266, 1118-1127 and Soderling, S. et al. Proc. Natl. Acad. Sci. 1999, 96, 7071-7076). PDE10A can be expressed as full-length proteins or as truncated proteins, as long as they express the catalytic domain. PDE10A can be prepared in different cell types, for example insect cells or E. coli. An example of a method to obtain catalytically active PDE10A is as follows: The catalytic domain of human PDE10A (amino acids 440-779 from the sequence with accession number NP 006652) is amplified from total human brain total RNA by standard RT-PCR and is cloned into the BamH1 and Xho 1 sites of the pET28a vector (Novagen). Expression in coli is performed according to standard protocols. Briefly, the expression plasmids are transformed into the BL21 (DE3) E. coli strain, and 50 mL cultures inoculated with the cells allowed to grow to an OD600 of 0.4-0.6 before protein expression is induced with 0.5 mM IPTG. Following induction, the cells are incubated overnight at room temperature, after which the cells are collected by centrifugation. Cells expressing PDE10A are resuspended in 12 mL (50 mM TRIS-HCl-pH8.0, 1 mM MgCl2 and protease inhibitors). The cells are lysed by sonication, and after all cells are lysed, TritonX100 is added according to Novagen protocols.
PDE10A assays have been described previously (Loughney, K. et al. Gene 1999, 234, 109-117; Fujishige, K. et al. Eur J Biochem. 1999, 266, 1118-1127 and Soderling, S. et al. Proc. Natl. Acad. Sci. 1999, 96, 7071-7076). PDE10A assays could for example can be performed as follows: PDE10A assays are performed in 60 uL samples containing a fixed amount of the relevant PDE enzyme (sufficient to convert 20-25% of the cyclic nucleotide substrate), a buffer (50 mM HEPES7.6; 10 mM MgCl2; 0.02% Tween20), 0.1 mg/ml BSA, 225 pCi of ^3H-labelled cyclic nucleotide substrate, tritium labeled cAMP to a final concentration of 5 nM and varying amounts of inhibitors. Reactions are initiated by addition of the cyclic nucleotide substrate, and reactions are allowed to proceed for one hr at room temperature before being terminated through mixing with 15 uL 8 mg/mL yttrium silicate SPA beads (Amersham). The beads are allowed to settle for one hr in the dark before the plates are counted in a Wallac 1450 Microbeta counter. The measured signal can be converted to activity relative to an uninhibited control (100%) and IC50 values can be calculated using the Xlfit extension to EXCEL.

rats [1] = conditions: cited from earlier work
rats [2] = conditions: cited from earlier work; remark: listed apart in the source
rats [3] = conditions: cited from earlier work; remark: listed apart in the source

Sequence of PDE10A enzyme (Q9Y233 716-1055): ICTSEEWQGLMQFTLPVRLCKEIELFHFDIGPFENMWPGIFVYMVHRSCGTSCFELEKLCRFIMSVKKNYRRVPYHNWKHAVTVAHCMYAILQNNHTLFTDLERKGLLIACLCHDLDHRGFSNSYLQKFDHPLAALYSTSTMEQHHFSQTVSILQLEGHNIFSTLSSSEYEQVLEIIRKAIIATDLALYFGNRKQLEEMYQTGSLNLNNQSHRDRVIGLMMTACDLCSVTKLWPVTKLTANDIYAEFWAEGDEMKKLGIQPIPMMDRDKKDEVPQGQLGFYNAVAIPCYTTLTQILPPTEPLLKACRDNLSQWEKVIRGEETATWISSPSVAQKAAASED

SMILES | IC50 (PDE10A enzyme) | other results
COc1cc2ncnc(N3CCN[C@@H](c4ccccc4)C3)c2cc1OC [Compound 7, 6,7-Dimethoxy-4-((S)-3-phenyl-piperazin-1-yl)-quinazoline] | 0.09 µM | 
COc1cc2ncnc(N3CCSC(c4ccccc4)C3)c2cc1OC (centres unmarked) [Compound 1, 6,7-Dimethoxy-4-(2-phenyl-thiomorpholin-4-yl)-quinazoline] | 0.089 µM | 
COc1cc2ncnc(N3CCN[C@H](c4ccccc4)C3)c2cc1OC [Compound 6, 6,7-Dimethoxy-4-((R)-3-phenyl-piperazin-1-yl)-quinazoline] | 0.065 µM | 
COc1cc2ncnc(N3CCOC(c4ccc(Cl)cc4)C3)c2cc1OC (centres unmarked) [Compound 11, 6,7-Dimethoxy-4-(2-(4-chlorophenyl)-morpholin-4-yl)-quinazoline] | 0.26 µM | 
COc1cccc([C@H]2CN(c3ncnc4cc(OC)c(OC)cc34)CCN2)c1 [Compound 5, 6,7-Dimethoxy-4-((S)-3-(3-methoxyphenyl)-piperazin-1-yl)-quinazoline] | 0.014 µM | 
COc1cc2ncnc(N3CCOC(c4ccc(C(F)(F)F)cc4)C3)c2cc1OC (centres unmarked) [Compound 12, 6,7-Dimethoxy-4-(2-(4-trifluomethylphenyl)-morpholin-4-yl)-quinazoline] | 0.66 µM | 
COc1cc2ncnc(N3CCNC(c4cc(OC)c(OC)c(OC)c4)C3)c2cc1OC (centres unmarked) [Compound 8, 4-[3-(3,4,5-trimethoxyphenyl)-piperazin-1-yl]-6,7-dimethoxy-quinazoline] | 0.18 µM | 
COc1cccc([C@@H]2CN(c3ncnc4cc(OC)c(OC)cc34)CCN2)c1 [Compound 4, 6,7-Dimethoxy-4-((R)-3-(3-methoxyphenyl)-piperazin-1-yl)-quinazoline] | 0.6 µM | 
COc1ccc(Cc2nccc3cc(OC)c(OC)cc23)cc1OC [Papaverin] |  | catalepsy on its own (rats [1]; alone): did not cause catalepsy on its own; cataleptic effect of haloperidol (rats [1]; with the D2 receptor antagonist haloperidol): potentiated the cataleptic effect; hyperactivity induced by PCP (rats [2]): reduced hyperactivity; reduction of amphetamine induced hyperactivity (rats [3]): insignificant
COc1cc2ncnc(N3CCNC(c4cc(Cl)ccc4Cl)C3)c2cc1OC (centres unmarked) [Compound 16, 4-[3-(2,5-dichlorophenyl)-piperazin-1-yl]-6,7-dimethoxy-quinazoline] | 0.17 µM | 
COc1cccc(C2CN(c3ncnc4cc(OC)c(OC)cc34)CCN2)c1 (centres unmarked) [Compound 2, 6,7-Dimethoxy-4-(3-(3-methoxyphenyl)-piperazin-1-yl)-quinazoline] | 0.033 µM | 

More lines, in order of falling IC50 (PDE10A enzyme), values ahead:

IC50 (PDE10A enzyme) | SMILES | other results
0.2 µM | COc1cc2ncnc(N3CCOC(c4ccc(F)cc4)C3)c2cc1OC (centres unmarked) [Compound 10, 6,7-Dimethoxy-4-(2-(4-fluorophenyl)-morpholin-4-yl)-quinazoline] | 
0.19 µM | COc1cc2ncnc(N3CCOC(c4ccccc4Cl)C3)c2cc1OC (centres unmarked) [Compound 13, 6,7-Dimethoxy-4-(2-(2-chlorophenyl)-morpholin-4-yl)-quinazoline] | 
0.11 µM | COc1cc2ncnc(N3CCNC(c4ccccc4OC)C3)c2cc1OC (centres unmarked) [Compound 9, 4-[3-(2-methoxyphenyl)-piperazin-1-yl]-6,7-dimethoxy-quinazoline] | 
0.079 µM | COc1cc2ncnc(N3CCOC(c4ccc(C)cc4)C3)c2cc1OC (centres unmarked) [Compound 3, 6,7-Dimethoxy-4-(2-(4-methylphenyl)-morpholin-4-yl)-quinazoline] | 
0.062 µM | COc1cc2ncnc(N3CCNC(c4ccc(N(C)C)cc4)C3)c2cc1OC (centres unmarked) [Compound 14, 4-[3-(4-dimethylaminophenyl)-piperazin-1-yl]-6,7-dimethoxy-quinazoline] | 
0.035 µM | COc1cc2ncnc(N3CCNC(c4ccc5c(c4)OCO5)C3)c2cc1OC (centres unmarked) [Compound 15, 4-[3-(3,4-methylenedioxyphenyl)-piperazin-1-yl]-6,7-dimethoxy-quinazoline] | 
